Results on four compounds are retold here after patent US5753673A, “Quinolinecarboxylic acid derivatives” (Taisho Pharmaceutical Co., Ltd., priority 1994, dated 1998).

In experiment [1] the test system is gastrointestinal motor function. The settings on record: TALLEY, N. J., 1992; cited from earlier work.
A further experiment concerns the target T1, 5-HT1A receptor (Rattus norvegicus, UniProt P19327).
T1 construct: The rat cerebral cortex was homogenized in 50 mM Tris hydrochloride buffer; from tissue; host or cells: rat cerebral cortex membranes
T1 sequence (P19327 1-422): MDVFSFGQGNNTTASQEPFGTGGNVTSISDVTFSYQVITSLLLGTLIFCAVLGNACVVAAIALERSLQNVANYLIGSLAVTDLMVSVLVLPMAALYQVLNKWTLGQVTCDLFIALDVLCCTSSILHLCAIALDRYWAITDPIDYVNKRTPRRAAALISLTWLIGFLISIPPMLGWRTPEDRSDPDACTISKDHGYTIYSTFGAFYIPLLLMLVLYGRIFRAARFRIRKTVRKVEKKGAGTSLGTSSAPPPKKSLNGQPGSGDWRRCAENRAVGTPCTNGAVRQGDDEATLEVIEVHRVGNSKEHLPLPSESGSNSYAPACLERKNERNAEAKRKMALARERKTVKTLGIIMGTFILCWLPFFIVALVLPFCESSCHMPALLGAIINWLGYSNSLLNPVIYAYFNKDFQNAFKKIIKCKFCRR
Description: Selectivity for receptors: 5-HT1A receptor, inhibition of [^3 H] 8-OH-DPAT binding to rat cerebral cortex membrane. The protocol:
(§1) The selectivity for receptors of the quinolinecarboxylic acid derivatives of the present invention was examined by the following method.
The affinity to serotonin 1A (5-HT1A) receptor was examined by the method described in […], J. R. et al., Biochem. Pharmacol., 12, 1943-1949 (1986).
The affinity to serotonin 1A (5-HT1A) was examined in terms of inhibition of [^3 H] 8-OH-DPAT (Daiichi Kagaku Yakuhin Co.) binding to rat cerebral cortex membrane. The rat cerebral cortex was homogenized in 50 mM Tris hydrochloride buffer (pH 7.4) followed by centrifugation at 48,000 G.
The pellet was washed once with Tris hydrochloride buffer. Then the pellet was suspended in 50 mM Tris hydrochloride buffer (supplemented with 0.01 mM pargyline and 0.1% ascorbic acid, pH 7.7) and provided for use as the membrane preparation. The membrane specimen was reacted with 1 nM [^3 H] 8-OH-DPAT at 37° C. for 15 minutes. After the reaction, the membrane was caught by a harvester. Non-specific binding was defined as that taken in the presence of 10 μM 5-HT.

The target in experiment [2] is T2, serotonin 4 receptor (5-HT4) (Cavia porcellus, UniProt O70528).
T2 construct: from tissue; host or cells: longitudinal muscle strips of guinea pig ileum (Harley guinea pigs)
T2 sequence (O70528 whole entry): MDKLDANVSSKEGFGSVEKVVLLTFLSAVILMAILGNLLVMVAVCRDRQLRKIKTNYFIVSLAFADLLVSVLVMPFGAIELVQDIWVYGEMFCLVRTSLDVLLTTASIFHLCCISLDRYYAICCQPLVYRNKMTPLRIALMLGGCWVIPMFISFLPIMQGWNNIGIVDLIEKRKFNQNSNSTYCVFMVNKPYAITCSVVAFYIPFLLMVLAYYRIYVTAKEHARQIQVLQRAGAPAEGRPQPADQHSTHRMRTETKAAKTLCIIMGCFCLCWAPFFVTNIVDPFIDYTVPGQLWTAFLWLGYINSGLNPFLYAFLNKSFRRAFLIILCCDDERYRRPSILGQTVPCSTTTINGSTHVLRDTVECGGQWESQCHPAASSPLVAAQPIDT
Description: Stimulating activity on serotonin 4 receptor (twitch response in guinea pig ileum). The class given is cell-based. The protocol:
Stimulating activity on serotonin 4 receptor
From Harley guinea pigs weighing 250 to 400 g, a section of ileum 10 to 20 cm proximal to the ileocecal junction was removed. Longitudinal muscle strips obtained from the ileum were used for this assay. The preparations were suspended in Krebs' solution at 32 to 34° C., bubbled continuously with 95% O2 and 5% CO2, and subjected to initial tension of about 0.8 g. Responses were recorded isometrically. Twitch responses were evoked by electrical stimulation (0.2 Hz, 1 msec pulse duration). The preparations were stimulated at supramaximal voltage for 2 to 3 hours, and were then allowed to equilibrate for about 1 hour at submaximal voltage. […] The preparations were left for at least 45 minutes before cumulative addition of each agonist.
The quinolinecarboxylic acid derivatives of the present invention were employed as sample compounds. For comparison, the following compounds were employed. These compounds were diluted by dissolving them in distilled water or in DMSO.
The data obtained was analyzed by RS1 (BBN Software Product Co.).

For the next experiment, the target named is T3, Dopamine D2 receptor (Rattus norvegicus, UniProt P61169).
T3 construct: The rat striatum was homogenized in 50 mM Tris hydrochloride buffer; from tissue; host or cells: rat striatal membranes
T3 sequence (P61169 whole entry): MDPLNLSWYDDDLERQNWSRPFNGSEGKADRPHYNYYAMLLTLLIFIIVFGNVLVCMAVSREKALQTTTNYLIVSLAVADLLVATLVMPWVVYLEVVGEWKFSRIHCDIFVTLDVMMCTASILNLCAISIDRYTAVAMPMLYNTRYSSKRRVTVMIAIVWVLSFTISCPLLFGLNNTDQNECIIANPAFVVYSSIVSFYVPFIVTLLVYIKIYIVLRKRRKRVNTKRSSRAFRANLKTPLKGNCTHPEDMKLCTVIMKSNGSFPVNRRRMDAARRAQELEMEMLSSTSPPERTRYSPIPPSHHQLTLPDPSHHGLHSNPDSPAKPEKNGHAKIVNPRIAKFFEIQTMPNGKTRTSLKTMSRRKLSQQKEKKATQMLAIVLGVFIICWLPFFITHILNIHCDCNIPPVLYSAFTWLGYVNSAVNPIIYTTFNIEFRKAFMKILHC
Description: Selectivity for receptors: dopamine D2 receptor, inhibition of [^3 H] raclopride binding to rat striatal membrane. The settings on record: [^3 H] raclopride 1 nM, symbol, no activity in 10 μM, read-out: Dopamine D2 receptor antagonizing action (IC50). The protocol: as §1
The affinity to dopamine 2 (D2) receptor was examined according to the method described in MALMBERG, A. et al., Mol Pharmacol., 43, 749-754 (1993).
The affinity for D2 receptor was studied in terms of the inhibition of [^3 H] raclopride (Daiichi Kagaku Yakuhin Co.) binding to rat striatal membrane. The rat striatum was homogenized in 50 mM Tris hydrochloride buffer (pH 7.4) followed by centrifugation at 48,000 G. The pellet was washed once with Tris hydrochloride buffer. Then the pellet was suspended in 50 mM Tris hydrochloride buffer (containing 120 mM NaCl, 5 mM KCl, 2 mM CaCl2, 1 mM MgCl2, pH 7.4) and provided for use as the membrane preparation. The membrane preparation (0.5 mg protein/ml) was reacted with 1 nM [3H] raclopride at 25° C. for 60 minutes. After the reaction, the membrane was caught by a harvester. Non-specific binding was defined as that taken in the presence of 10 μM haloperidol.

For the next experiment, the target named is T4, 5-HT4 receptor (Cavia porcellus, UniProt O70528).
T4 construct: The longitudinal muscle strip from guinea pig was homogenized; from tissue; host or cells: membranes of guinea pig ileum longitudinal muscle strip
T4 sequence (O70528 whole entry): as the sequence (O70528 whole entry) above
Description: Inhibition of 5-HT4 receptor-binding ([^3 H]GR113808 binding in guinea pig ileum). On the procedure:
Effect on inhibition of 5-HT4 receptor-binding
The effect on inhibition of 5-HT4 receptor-binding of the quinolinecarboxylic acid derivatives of the present invention was examined according to the method described in GROSSMAN et al., Br. J. Pharmacol., 109, 618 (1993).
The longitudinal muscle strip from guinea pig was homogenized in 0.32M sucrose with a Teflon-glass homogenizer. After centrifugation at 900 G for 10 minutes, the upper fraction of lipids and precipitates was discarded and the supernatant was centrifuged at 100,000 G (48,000 rpm) for an hour. The pellet was resuspended in 50 mM HEPES buffer. After incubation at 37° C. for 30 minutes, the suspension was centrifuged at 48,000 rpm for 20 minutes. The pellet was suspended in HEPES buffer supplemented with 10^-6 M pargyline and 0.1% ascorbic acid. The suspension was used for the binding assay.
Non-specific binding was defined as that taken in the presence of 3×10^-5 M 5-HT. B/F separation was performed through GF/B filter treated with 0.1% polyethyleneimine, using a cell harvester. Washing was performed once.

A further experiment concerns the target T5, 5-HT3 receptor (Rattus norvegicus, UniProt P35563).
T5 construct: The rat cerebral cortex was homogenized in 50 mM Tris hydrochloride buffer; from tissue; host or cells: rat cerebral cortex membranes
T5 sequence (P35563 24-483): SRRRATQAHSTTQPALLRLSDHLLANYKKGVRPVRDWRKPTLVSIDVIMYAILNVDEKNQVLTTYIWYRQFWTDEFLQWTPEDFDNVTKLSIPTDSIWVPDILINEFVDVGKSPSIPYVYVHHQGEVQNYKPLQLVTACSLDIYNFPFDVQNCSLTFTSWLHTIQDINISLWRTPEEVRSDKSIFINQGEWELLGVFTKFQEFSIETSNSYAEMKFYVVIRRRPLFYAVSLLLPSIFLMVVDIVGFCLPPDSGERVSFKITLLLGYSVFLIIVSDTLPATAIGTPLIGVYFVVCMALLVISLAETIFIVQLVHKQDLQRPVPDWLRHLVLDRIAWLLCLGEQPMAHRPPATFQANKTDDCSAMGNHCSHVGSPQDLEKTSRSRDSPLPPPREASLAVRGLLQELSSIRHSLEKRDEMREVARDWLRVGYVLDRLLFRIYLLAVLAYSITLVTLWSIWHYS
Description: Selectivity for receptors: 5-HT3 receptor, inhibition of [^3 H]GR65630 binding to rat cerebral cortex membrane. The settings on record: [^3 H]GR65630 0.2 nM, read-out: 5-HT3 receptor antagonizing action (IC50). The protocol: as §1
The affinity for serotonin 3 receptor was examined by the method described in […], G. J. et al., Nature (London), 330, 746-748 (1987).
The affinity to serotonin 3 (5-HT3) was examined in terms of inhibition of [^3 H]GR65630 binding (Daiichi Kagaku Yakuhin Co.) binding to rat cerebral cortex membrane. The rat cerebral cortex was homogenized in 50 mM Tris hydrochloride buffer (pH 7.4) followed by centrifugation at 48,000 G. The precipitates were washed once with Tris hydrochloride buffer. Then the precipitates were suspended in 50 mM Tris hydrochloride buffer and provided for use as the membrane preparation. The membrane preparation was reacted with 0.2 nM [^3 H]GR65630 at 37° C. for 30 minutes. After the reaction, the membrane was caught by a harvester. Non-specific binding was defined as the binding taken in the presence of 1 μM zacopride.

The mark [3] stands for this setting: [^3 H] 8-OH-DPAT 1 nM, rat cerebral cortex membrane, symbol, no activity in 10 μM, read-out: 5-HT1A receptor antagonizing action (IC50).

Structures are written as SMILES. Read-outs that look alike come from different tables or passages of the source. Some results are limits rather than exact numbers.

`COc1cc(N)c(Cl)cc1C(=O)N[C@@H]1CCN(CCCOc2ccc(F)cc2)C[C@@H]1OC` (relative stereo) [Comparative Compound 1, Cisapride, reference compound]: in experiment [1], the “effect on gastrointestinal motor function and conditions” value was “accelerate the gastrointestinal motor function and improve the gastrointestinal conditions”. This compound gave an IC50 at 5-HT1A receptor of 64.7 nM.

On to `CCOCCN1C2CCC1CC(NC(=O)c1cc3ccccc3n(C(C)C)c1=O)C2` (stereo not drawn) [Compound 11, Endo-N-(8-(2-ethoxyethyl)-8-azabicyclo[3.2.1]oct-3-yl)-1-isopropyl-2-oxo-1,2-dihydro-3-quinolinecarboxamide], for which a half-maximal response in experiment [2] (EC50) required 18.7 nM. In addition, the IC50 at 5-HT1A receptor (setting [3]) was over 10000 nM; on Dopamine D2 receptor, over 10000 nM; on 5-HT4 receptor, 68.7 ± 7.32 nM; at 5-HT3 receptor, 423 nM.

In experiment [2], `CC(C)n1c(=O)c(C(=O)N[C@H]2C[C@H]3CC[C@@H](C2)N3CCN2CCOCC2)cc2ccccc21` [Compound 20, endo-N-(8-(2-morpholinoethyl)-8-azabicyclo[3.2.1]oct-3-yl)-1-isopropyl-2-oxo-1,2-dihydro-3-quinolinecarboxamide] gave a concentration giving a half-maximal response (EC50) of 25.5 nM. Further, the IC50 on 5-HT1A receptor (setting [3]) was over 10000 nM; on Dopamine D2 receptor it was over 10000 nM; at 5-HT4 receptor, 78.1 ± 14.5 nM; on 5-HT3 receptor, 509 nM.

For the compound `COc1cc(N)c(Cl)cc1C(=O)NC1CCN2CCCC1C2` (stereo not shown) [renzapride], the “effect on gastrointestinal motor function and conditions” value in experiment [1] was “accelerate the gastrointestinal motor function and improve the gastrointestinal conditions”.

One may read the IC50 as the concentration at which inhibition is half-maximal. For orientation: EC50 means the concentration that produces a half-maximal response.
